Test results: patent publication US20240342148A1, “METHODS OF TREATING FACIOSCAPULOHUMERAL MUSCULAR DYSTROPHY WITH LOSMAPIMOD” (Fulcrum Therapeutics, Inc., priority 2021, published 2024)
Where “and” joins values, the source holds several entries; their conditions need not be identical. Equal values may be shown once.

Tests used:
subjects with FSHD [1] = test: Reachable workspace, Open Label Study, exploratory annualized analysis; assay type: in vivo, human; conditions: with and without weights
Text: In the Open Label Study, reachable workspace (RWS) with and without weights has also been evaluated. FIG. 27 provides exploratory annualized percentage changes of RWS from baseline of patients participating in the study.

p38a/b MAPK pathway = test: Target engagement in blood: pHSP27/HSP27total ELISA after ex vivo sorbitol stimulation; parameters: species or system human
Description: Blood samples for target engagement were collected at D1 and Wk16 or Wk36, at the same pre- and post-dose time points as PK samples.
Blood samples for measurement of total heat shock protein 27 (HSP27total) and phosphorylated heat shock protein 27 (pHSP27) were collected into EDTA-containing tubes. Two mL of whole blood was stimulated ex vivo with sorbitol for 30 minutes at room temperature to induce phosphorylation of HSP27 as a measure of p38a/b MAPK activity. Sorbitol stimulation activates the p38a/b MAPK pathway in blood and allows for more robust detection of inhibition of the p38a/b MAPK pathway by losmapimod. Subsequently, samples were lysed on ice and lysates frozen at −80° C. pHSP27 and HSP27total were measured by a validated enzyme-linked immunosorbent assay method (Cambridge Biomedical Inc., Boston, MA, USA and Immunologix, Tampa, FL, USA). Inter- and intra-assay precision for both pHSP27 and HSP27total met the preapproved criteria of <25% CV having been run in 5 replicates with the LLOQ established for pHSP27 at 20.7 ng/ml and ULOQ at 470.1 ng/ml and the LLOQ established for HSP27total at 105.2 ng/ml and ULOQ at 2168.1 ng/mL.

subjects with FSHD [2] = test: Patients' Global Impression of Change (PGIC); assay type: in vivo, human; conditions: Wk48
Description: The Patients' Global Impression of Change (PGIC) Questionnaire was administered at every visit after baseline. Subjects were asked to rate their overall status since the start of the study on a scale from 1 (very much improved) to 7 (very much worse). The PGIC scale has been validated in several other indications and is recommended by the FDA for use as a meaningful measure of within-patient change.

subjects with FSHD [3] = test: Safety and tolerability in the RCT; assay type: in vivo, human; conditions: 15 mg BID up to 48 weeks
Description: All safety analyses were performed using the safety analysis set based on as-treated treatment group. Safety analyses included summaries of TEAEs, clinical laboratory, vital signs and ECGs.

subjects with FSHD [4] = test: Reachable workspace (RWS) relative surface area, RCT; assay type: in vivo, human
Description: Continuous secondary and exploratory efficacy endpoints with 2 or more postbaseline follow-ups were analyzed using a mixed-effects model for repeated measures (MMRM), with change from baseline as the dependent variable, and treatment group, visit, treatment group-by-visit interaction, and FSHD repeat number category as fixed effects, and baseline value as a covariate. An unstructured covariance matrix was used to model the correlations among repeated measurements within each subject. The Kenward-Roger approximation was used to estimate denominator degrees of freedom. The RWS RSA score was also analyzed using a linear mixed-effects model, with treatment group as a fixed effect, and intercept, time and treatment group-by-time interaction as random effects, and with adjustment for FSHD repeat number category and region (USA, Canada, and EU). An unstructured covariance matrix was used. The RWS was performed at all visits, except for Week 16. It uses a single, 3D sensor-based system (Microsoft […]) that can unobtrusively detect subjects' RWS and reflects individual global upper extremity (UE) function, including shoulder and proximal arm. RWS has high reliability, repeatability, face validity, feasibility, sensitivity to change, and promise as a clinical outcome assessment (COA) for FSHD and other neuromuscular disorders. During the evaluation, patients were seated in front of the Microsoft […] sensor and underwent a standardized UE movement protocol while looking at a TV monitor. The evaluation was performed with and without 500 g weights two times per visit. All sites were provided and trained with the same standardized software and hardware by the sponsor. A central reader was responsible for training, quality control, data analysis, and standardization of the RWS across all sites in the study.

[5] = Muscle losmapimod concentrations in needle biopsies; assay type: in vivo; conditions: human, po, 15 mg BID, 15 mg orally BID
Description: Muscle needle biopsies were performed using the Bergstrom needle or fine needle at D1 and Wk16, or Wk36 if the muscle biopsy could not be performed at Wk16. The choice of the muscle(s) to be biopsied was determined by the investigator, informed by MRI taken during screening. Only those STIR+ muscles with 10%≤MFF≤40% were eligible for biopsy. […] The bilateral vastus lateralis, vastus medialis, lateral gastrocnemius, medial gastrocnemius, and tibialis anterior were evaluated for eligibility by MRI using a central reader. The Wk16 or Wk36 muscle needle biopsies were performed in the same approximate location as the pretreatment (D1) muscle biopsy. At baseline, MRI fiducials were placed in order to identify the location for the needle biopsy. Coordinates in reference to the closest fiducial defined the location for the muscle biopsy. […] Approximately 15-40 mg of tissue was obtained at each biopsy and frozen in liquid nitrogen within 60 seconds after excision and stored at −80° C. (SciSafe Inc. Billerica, MA, USA) until analysis.
Plasma and muscle losmapimod concentrations were measured by 2 validated bioanalytical high-performance liquid chromatography methods by PPD, USA (PPD 2019).

subjects with FSHD [6] = test: Motor Function Measure Domain 1 (MFM); parameters: species or system human; conditions: in vivo
Description: MFM domain 1 assessments were performed at all visits, except for those on Wk4 and Wk16. The MFM scale assesses the severity of motor deficit. Domain 1 of the MFM provides an assessment of functional impairment for standing and transfers.

In the case of `Cc1c(F)cc(C(=O)NC2CC2)cc1-c1ccc(C(=O)NCC(C)(C)C)cn1` [losmapimod, 6-(5-cyclopropylcarbamoyl-3-fluoro-2-methyl-phenyl)-N-(2,2-dimethylpropyl-)-nicotinamide], the “Annualized RWS increase from baseline, Q1 and Q3 (largest increases)” value (subjects with FSHD [1]) is reported as 7-17%, the “Reduction of pHSP27/HSP27total compared to placebo at Cmax” value (p38a/b MAPK pathway) is reported as 48.0-70.2% and the “Patients reporting feeling very much worse on PGIC (6-7 in Likert scale)” value (subjects with FSHD [2]) is reported as “No losmapimod treated patients”. The “Patients reporting improvement on PGIC (1-3 in Likert scale)” value (subjects with FSHD [2]) was 27.5% and ~20%, the “PGIC difference compared to placebo” value (subjects with FSHD [2]; 1-7 Likert scale, p=0.02) was 0.58 and the Safety and tolerability (subjects with FSHD [3]) was “favorable safety and tolerability”. The “RSA change, dominant arm” value (subjects with FSHD [4]; 0-1.25 scale) was 0.019, the “RSA change, non-dominant arm” value (subjects with FSHD [4]; 0-1.25 scale) was 0.021 and the “RSA difference vs placebo, non-dominant arm” value (subjects with FSHD [4]; 0-1.25 scale, 95% CI 0.0007, 0.09, p<0.05) was 0.045. For the same compound, the “RSA difference vs placebo, dominant arm” value (subjects with FSHD [4]; 0-1.25 scale, 95% CI 0.017, 0.118, p=0.01) was 0.067, the “Annualized rate of change in total RSA, non-dominant, annual percent change” value (subjects with FSHD [4]; weighted assessment, p=0.01) was 4.88% and the “Annualized rate of change in total RSA, dominant, annual percent change” value (subjects with FSHD [4]; weighted assessment, p=0.07) was 0.28%. For the same compound, the concentration at 16 weeks ([5]; Wk16 biopsy, read-out: Concentrations in muscles at Wk16) was 61 ± 7.7 ng/g, the concentration at 36 weeks ([5]; Wk36 biopsy, read-out: Concentrations in muscles at Wk36) was 91.1 ± 10.7 ng/g and the “MFM total score vs placebo” value (subjects with FSHD [6]) was “no difference”.
